Experimental data: US20130011480A1, “CYTOTOXIC THERAPY BY PROTON FLUX MODULATION” (priority 2011, published 2013)
Where a name gives a salt, the structure may show the parent alone. Read-outs that look alike come from different tables or passages of the source.

Assays:
[1] = as low as; dose dependent; cited from earlier work
proton pump = proton pump (Homo sapiens, UniProt P20648); conditions: compared with classical PPIs; cited from earlier work
CA3 neurons [2] = conditions: cited from earlier work
CA3 neurons [3] = conditions: 50 μM; CO2/HCO3−-buffered; cited from earlier work
[4] = tested on: Na+-independent Cl−/HCO3− exchange; conditions: cited from earlier work
K+ channels = conditions: 100-500 μM; cited from earlier work
[5] = tested on: high-voltage-activated Ca2+ channels; conditions: hippocampal CA1 neurons; cited from earlier work
N-type Ca2+ channel = target: T1, N-type Ca2+ channel (Homo sapiens, UniProt Q00975); conditions: calculated for 50 μM; cited from earlier work
T1 construct: N-type Ca2+ channels of hippocampal CA1 neurons; host or cells: hippocampal CA1 neurons
T1 sequence (Q00975 whole entry): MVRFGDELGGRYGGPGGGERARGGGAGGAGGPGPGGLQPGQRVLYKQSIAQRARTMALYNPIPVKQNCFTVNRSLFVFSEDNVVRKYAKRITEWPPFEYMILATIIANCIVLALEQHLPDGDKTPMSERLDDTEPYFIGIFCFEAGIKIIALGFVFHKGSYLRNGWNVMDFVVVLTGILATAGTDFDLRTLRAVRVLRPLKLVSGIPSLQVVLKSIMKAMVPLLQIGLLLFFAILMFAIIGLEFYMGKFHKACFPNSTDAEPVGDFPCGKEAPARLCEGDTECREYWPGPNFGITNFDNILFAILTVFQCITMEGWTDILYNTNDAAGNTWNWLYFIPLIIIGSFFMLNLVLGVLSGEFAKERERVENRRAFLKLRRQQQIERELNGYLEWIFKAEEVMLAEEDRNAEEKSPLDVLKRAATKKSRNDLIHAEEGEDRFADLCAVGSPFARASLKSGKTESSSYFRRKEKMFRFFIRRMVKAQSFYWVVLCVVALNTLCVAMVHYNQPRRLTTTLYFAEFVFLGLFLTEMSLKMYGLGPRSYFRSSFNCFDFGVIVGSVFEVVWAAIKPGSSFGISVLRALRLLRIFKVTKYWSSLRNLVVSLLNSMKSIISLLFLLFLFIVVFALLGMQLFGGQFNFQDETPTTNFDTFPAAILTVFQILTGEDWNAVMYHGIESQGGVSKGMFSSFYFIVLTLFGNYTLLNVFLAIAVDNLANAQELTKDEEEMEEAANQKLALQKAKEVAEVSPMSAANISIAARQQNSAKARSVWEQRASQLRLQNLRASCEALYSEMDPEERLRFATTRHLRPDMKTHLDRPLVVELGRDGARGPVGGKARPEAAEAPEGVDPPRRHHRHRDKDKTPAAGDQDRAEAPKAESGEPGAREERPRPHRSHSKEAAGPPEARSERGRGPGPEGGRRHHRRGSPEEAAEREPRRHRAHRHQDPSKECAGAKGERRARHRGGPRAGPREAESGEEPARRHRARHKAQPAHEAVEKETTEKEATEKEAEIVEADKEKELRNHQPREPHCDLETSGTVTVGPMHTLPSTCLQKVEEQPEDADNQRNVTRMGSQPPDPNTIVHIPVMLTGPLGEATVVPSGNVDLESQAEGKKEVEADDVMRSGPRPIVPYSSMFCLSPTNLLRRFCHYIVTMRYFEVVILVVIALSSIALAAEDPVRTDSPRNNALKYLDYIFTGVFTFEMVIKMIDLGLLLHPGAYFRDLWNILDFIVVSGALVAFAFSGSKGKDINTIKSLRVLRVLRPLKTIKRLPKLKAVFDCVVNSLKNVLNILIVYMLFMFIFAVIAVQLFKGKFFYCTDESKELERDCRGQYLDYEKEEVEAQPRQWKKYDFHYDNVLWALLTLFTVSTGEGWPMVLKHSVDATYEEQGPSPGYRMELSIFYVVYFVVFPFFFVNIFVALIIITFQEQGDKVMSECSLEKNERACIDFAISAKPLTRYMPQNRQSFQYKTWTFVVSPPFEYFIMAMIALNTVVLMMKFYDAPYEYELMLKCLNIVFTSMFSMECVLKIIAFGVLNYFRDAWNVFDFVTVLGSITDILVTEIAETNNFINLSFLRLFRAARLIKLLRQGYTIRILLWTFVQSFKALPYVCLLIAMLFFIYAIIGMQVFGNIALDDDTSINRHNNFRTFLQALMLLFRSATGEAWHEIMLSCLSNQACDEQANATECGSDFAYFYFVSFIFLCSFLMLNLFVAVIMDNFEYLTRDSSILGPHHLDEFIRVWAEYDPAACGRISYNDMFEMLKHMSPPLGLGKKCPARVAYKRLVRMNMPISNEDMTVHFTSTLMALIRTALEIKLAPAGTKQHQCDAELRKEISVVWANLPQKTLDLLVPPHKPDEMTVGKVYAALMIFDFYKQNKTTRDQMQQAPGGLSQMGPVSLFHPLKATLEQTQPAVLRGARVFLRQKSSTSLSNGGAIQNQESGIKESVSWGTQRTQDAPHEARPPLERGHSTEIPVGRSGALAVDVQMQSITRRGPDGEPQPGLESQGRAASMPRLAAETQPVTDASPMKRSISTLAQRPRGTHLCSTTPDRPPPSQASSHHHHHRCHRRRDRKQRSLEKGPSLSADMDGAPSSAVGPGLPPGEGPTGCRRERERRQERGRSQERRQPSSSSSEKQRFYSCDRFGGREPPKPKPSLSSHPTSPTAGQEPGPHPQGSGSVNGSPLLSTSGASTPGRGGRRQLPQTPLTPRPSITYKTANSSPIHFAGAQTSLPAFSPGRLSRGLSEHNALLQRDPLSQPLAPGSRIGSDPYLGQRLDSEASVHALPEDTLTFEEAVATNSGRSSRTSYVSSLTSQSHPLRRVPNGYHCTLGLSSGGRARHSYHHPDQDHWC

human melanoma [6] = conditions: well-tolerated doses; cited from earlier work
human melanoma [7] = conditions: preadministration; cited from earlier work
[8] = tested on: isolated normal rat hepatocyte; conditions: 72 hours' treatment; read-out: 50% inhibitory concentrations (IC(50)); cited from earlier work
Huh-7 cells = conditions: cited from earlier work
[9] = tested on: subcutaneous xenografted Huh-7 cells; conditions: 1 or 10 mg/kg/d subcutaneously, 2 weeks, cited from earlier work
[10] = Cancer patients treated orally with acid-efflux inhibitor combinations: side effects; type: in vivo, human
Method: Patients have been treated orally with a combination of drugs that inhibit the efflux of acid (H+, CO2, and/or lactic acid). Although these drugs tend to alkalinize the extracellular milieu of cancer cells, they may be administered in combinations that achieve a metabolic acidosis.
Esomeprazole (vacuolar H+ ATPase pump inhibitor) was used either daily or every other day, with a dose ranging from 240 mg per day up to 320 mg per day, or more.
Methazolamide (a carbonic anhydrase inhibitor) was used every other day with a dose ranging from 50 mg per day up to a maximum of 400 mg per day. […] Side effects were especially noticeable in a patient with elevated liver function tests due to metastatic disease to the liver.
Amiloride (Na−H+ exchanger inhibitor and an inhibitor of urokinase plasminogen activator) was used daily at a dose of 20 mg per day, or more. Because amiloride is a potassium-sparing diuretic, with a propensity to cause hyperkalemia, HCTZ, at 25 mg 2 times per day was administered as well. In addition, the use of amiloride in combination with HCTZ has shown to inhibit metastases more effectively than when amiloride is used alone.
NaHCO3 (Arm & Hammer Baking Soda) was used daily, in some cases, at a dose ranging from 5 grams to 30 grams per day, or more.
Intravenous lactate and/or glucose (with or without insulin) are useful for potentiating this therapy. […]

human breast cancer = conditions: chronic oral administration; cited from earlier work
NHE1 = NHE1 (Homo sapiens, UniProt P19634); conditions: NHE1 inhibition; cited from earlier work
Sequence of NHE1 (P19634 whole entry, species assumed): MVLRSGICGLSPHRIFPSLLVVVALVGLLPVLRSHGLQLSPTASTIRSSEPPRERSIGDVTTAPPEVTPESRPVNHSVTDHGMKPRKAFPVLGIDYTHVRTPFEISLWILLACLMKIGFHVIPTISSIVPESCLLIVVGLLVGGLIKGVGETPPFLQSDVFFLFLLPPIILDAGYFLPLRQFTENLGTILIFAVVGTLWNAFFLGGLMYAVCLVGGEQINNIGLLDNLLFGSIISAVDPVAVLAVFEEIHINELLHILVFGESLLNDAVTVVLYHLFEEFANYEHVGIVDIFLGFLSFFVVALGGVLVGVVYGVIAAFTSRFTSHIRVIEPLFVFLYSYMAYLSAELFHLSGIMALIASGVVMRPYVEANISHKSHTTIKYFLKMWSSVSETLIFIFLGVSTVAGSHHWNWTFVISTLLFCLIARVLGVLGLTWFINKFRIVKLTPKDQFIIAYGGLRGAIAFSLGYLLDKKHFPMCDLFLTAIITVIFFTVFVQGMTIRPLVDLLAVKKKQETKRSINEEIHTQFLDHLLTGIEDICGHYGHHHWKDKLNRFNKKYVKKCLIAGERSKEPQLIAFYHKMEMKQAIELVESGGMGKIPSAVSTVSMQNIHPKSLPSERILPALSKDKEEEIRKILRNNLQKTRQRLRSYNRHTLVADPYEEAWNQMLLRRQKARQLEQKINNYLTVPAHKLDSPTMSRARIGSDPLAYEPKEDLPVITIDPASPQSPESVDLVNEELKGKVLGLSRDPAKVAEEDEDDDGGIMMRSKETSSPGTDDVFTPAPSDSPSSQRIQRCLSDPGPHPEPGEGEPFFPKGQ

[11] = raises metabolic rate and promotes weight loss; cited from earlier work
hepatoblastoma cells = conditions: morphological observations and flow cytometry; cited from earlier work
[12] = tested on: normal human hepatic cells; conditions: treated versus untreated cells; cited from earlier work

Sequence of proton pump (P20648 whole entry): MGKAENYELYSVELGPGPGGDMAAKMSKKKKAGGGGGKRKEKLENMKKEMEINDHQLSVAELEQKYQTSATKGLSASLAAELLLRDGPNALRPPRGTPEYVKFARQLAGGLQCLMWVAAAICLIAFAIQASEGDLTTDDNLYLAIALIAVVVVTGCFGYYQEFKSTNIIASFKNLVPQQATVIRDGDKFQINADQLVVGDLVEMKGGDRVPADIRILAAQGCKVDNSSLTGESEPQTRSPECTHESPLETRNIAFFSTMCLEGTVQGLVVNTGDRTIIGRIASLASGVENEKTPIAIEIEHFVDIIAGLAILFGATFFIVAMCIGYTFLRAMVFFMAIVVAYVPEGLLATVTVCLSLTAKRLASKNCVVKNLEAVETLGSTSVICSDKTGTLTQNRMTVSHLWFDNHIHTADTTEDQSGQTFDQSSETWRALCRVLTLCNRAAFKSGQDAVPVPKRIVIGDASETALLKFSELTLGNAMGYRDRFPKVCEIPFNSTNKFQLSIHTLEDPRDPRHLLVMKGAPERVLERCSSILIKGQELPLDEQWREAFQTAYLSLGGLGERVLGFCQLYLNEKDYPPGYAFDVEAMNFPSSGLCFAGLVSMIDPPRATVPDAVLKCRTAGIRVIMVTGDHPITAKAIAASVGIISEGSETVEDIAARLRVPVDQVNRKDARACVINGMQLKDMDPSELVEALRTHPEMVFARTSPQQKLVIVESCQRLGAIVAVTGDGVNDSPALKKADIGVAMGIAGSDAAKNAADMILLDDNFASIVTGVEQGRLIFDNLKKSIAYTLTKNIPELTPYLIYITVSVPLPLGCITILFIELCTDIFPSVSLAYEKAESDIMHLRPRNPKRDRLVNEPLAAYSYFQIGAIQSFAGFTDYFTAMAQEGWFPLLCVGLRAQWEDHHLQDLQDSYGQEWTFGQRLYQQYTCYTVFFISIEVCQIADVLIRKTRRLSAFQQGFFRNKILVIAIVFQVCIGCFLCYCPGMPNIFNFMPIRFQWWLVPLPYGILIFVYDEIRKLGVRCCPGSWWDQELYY
Sequence of proton pump (P51164 whole entry partner): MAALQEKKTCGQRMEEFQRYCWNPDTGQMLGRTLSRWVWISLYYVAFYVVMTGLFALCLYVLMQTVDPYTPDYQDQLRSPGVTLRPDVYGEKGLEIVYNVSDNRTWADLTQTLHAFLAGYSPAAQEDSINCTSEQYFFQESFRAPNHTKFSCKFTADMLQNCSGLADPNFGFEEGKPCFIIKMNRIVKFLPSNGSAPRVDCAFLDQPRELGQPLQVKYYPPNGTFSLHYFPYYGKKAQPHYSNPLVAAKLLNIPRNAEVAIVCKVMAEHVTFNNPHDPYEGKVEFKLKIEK

In the case of `N=C(N)NC(=O)c1nc(Cl)c(N)nc1N` [amiloride], the doses found effective [1] is listed as at least 0.3 mg/kg body weight per day.

For `Cc1nc(Nc2ccc(F)cc2)nc(N2CCc3ccccc3C2C)c1C` (stereo not drawn) [revaprazan], the “time to block H+ secretion” value (proton pump) is listed as “within a half-hour”.

For `CC[C@@H](C(N)=O)N1CCCC1=O` [LEV, levetiracetam], the “effect on pHi” value (CA3 neurons [2]; 1 μM (n=4)) is given as “without any effect”, the “effect on steady-state pHi” value (CA3 neurons [2]; 10 μM (n=3)) is given as “Small shifts” and the “steady-state pHi” value (CA3 neurons [2]; 50 μM, Na+-free CO2/HCO3−-buffered solution, n=5) is given as “not likely further influenced”. The “mean acidification of steady-state pHi, nonresponding neurons excluded” value (CA3 neurons [2]; 50 μM, neuronal somata, CO2/HCO3−-buffered solution, n=8) was 0.19±0.07 pH units, the “mean acidification of steady-state pHi” value (CA3 neurons [2]; 50 μM, neuronal somata, CO2/HCO3−-buffered solution, n=11) was 0.14±0.09 pH units and the “decrease of pHi” value (CA3 neurons [2]; 50 μM, nominal absence of extracellular CO2/HCO3−, HEPES pH 7.4, n=5) was “abolished”. For the same molecule, the “decrease of pHi of larger regions” value (CA3 neurons [2]; 50 μM, stratum pyramidale, CO2/HCO3−-buffered solution, n=5) was 0.11±0.04 pH units, the “effect on pHi” value (CA3 neurons [2]; increase to 100 μM (n=4)) was “without additional effect” and the “steady-state pHi after preincubation” value (CA3 neurons [3]) was 6.82. For the same molecule, the “alkalinization upon removal of extracellular Cl−” value ([4]; 50, preincubation 15 min, n=5) was “no effect”, the “inhibition of K+ channels” value (K+ channels) was “less than 20%” and the “reduction of high-voltage-activated calcium currents” value [5] was “about 20%”. The “reduction of N-type Ca2+ channel currents” value (N-type Ca2+ channel) was “ca. 15%”.

In the case of `COc1ccc2nc([S@@+]([O-])Cc3ncc(C)c(OC)c3C)[nH]c2c1` [esomeprazole, Esomeprazole], the “tumor growth and survival” value (human melanoma [6]) is given as “markedly impede tumor growth and prolong survival”.

In the case of `COc1ccc2[nH]c([S+]([O-])Cc3ncc(C)c(OC)c3C)nc2c1` (stereo not drawn) [omeprazole], the “growth-retardant impact of cisplatin” value (human melanoma [7]) is given as “potentiate the growth-retardant impact of cisplatin”.

For `COC1=CC(c2ccc[nH]2)=N/C1=C\c1[nH]c(C)c2c1C(C)CCC2` (stereo not drawn) [cPrG-HCl, Cycloprodigiosin hydrochloride], the IC50 [8] is listed as 8.4 µM, the pHi (Huh-7 cells; lowered pHi) is listed as under 6.8 and the apoptosis (Huh-7 cells; subG(1) population, DNA fragmentation, chromatin condensation) is listed as “induced apoptosis”. The “pathological changes in organs” value [9] was “No pathological changes were observed in any organs”, the “serum alanine transaminase levels” value [9] was “remained within normal limits” and the tumor growth ([9]; compared with the control after 8 days) was “significantly inhibited tumor growth”.

In the case of `O=C([O-])O.[Na+]` [sodium bicarbonate], the side effects ([10]; daily, 5 grams to 30 grams per day) is listed as “bloating and abdominal discomfort”, the “expansion of primary tumors” value (human breast cancer) is listed as “not influencing the expansion of primary tumors” and the “metastases in lung, visceral organs, and lymph nodes” value (human breast cancer) is listed as “markedly reduces the number and size of metastases”.

In the case of `CCN(c1nc(N)c(C(=O)N=C(N)N)nc1Cl)C(C)C` [EIPA, 5-(N-ethyl-N-isopropyl)-amiloride], the “potency relative to amiloride” value (NHE1) is given as “about 200 times”.

In the case of `O=[N+]([O-])c1ccc(O)c([N+](=O)[O-])c1` [DNP, dinitrophenol], the “reasonably well tolerated daily dose” value [11] is listed as 3 to 5 mg/kg.

For `O=S(=O)(O)c1cc(N=C=S)ccc1C=Cc1ccc(N=C=S)cc1S(=O)(=O)O` [DIDS, 4,4′-diisothiocyanato-stilbene-2,2′-disulfonic acid], the “alkalinization upon removal of extracellular Cl−” value ([4]; 500 μM, pretreatment 15 min, n=3) is listed as “completely abolished”.

In the case of `COCCO[C@@H]1c2ccn3c(C)c(C)nc3c2N[C@H](c2ccccc2)[C@H]1O` [Soraprazan], the “time to block H+ secretion” value (proton pump) is listed as “within a half-hour”.

For `CO/C1=C\C(C)=C\[C@@H](C)[C@@H](O)[C@@H](C)C/C(C)=C/C=C/[C@H](OC)[C@@H]([C@@H](C)[C@@H](O)[C@H](C)[C@@]2(O)C[C@@H](O)[C@H](C)[C@@H](C(C)C)O2)OC1=O` [Baf-A1, Bafilomycin A1], the “cellular reproduction and apoptosis” value (hepatoblastoma cells) is listed as “inhibits hepatoblastoma cellular reproduction by inducing apoptosis” and the “inhibition of cell growth” value [12] is listed as “negligible”.

With `CC(=O)/N=c1/sc(S(N)(=O)=O)nn1C` [Methazolamide] the side effects ([10]; every other day, 50 mg per day up to 400 mg per day) was “tingling in extremities, acidosis, fatigue, and nausea”.
